System: not given
Test: not given
Conditions: not given

melting point [°C] | SMILES
142 to 145 | CC(CC#Cc1cscn1)Nc1ncnc2ccccc12 (stereo not drawn) [compound 291]
119 to 120 | CCOc1ccccc1C#CCCNc1ncnc2ccccc12 [compound 118]
183 to 185 | OCc1ccc(C#CCCNc2ncnc3ccccc23)cn1 [compound 202]
182 to 184 | COc1ccc(C#CCCNc2ncnc3sccc23)cc1OC [compound 24]
164 to 165 | CS(=O)(=O)c1ccc(C#CCCNc2ncnc3ccccc23)cc1 [compound 120]
137 to 138 | CCOC(=O)c1ccc(C#CCCNc2ncnc3ccccc23)cc1 [compound 129]
137 to 139 | FC(F)(F)c1ccc(Oc2nc(C#CCCNc3ncnc4ccccc34)cs2)cc1 [compound 220]
159 to 161 | FC(F)(F)c1ccccc1Oc1nc(C#CCCNc2ncnc3ccccc23)cs1 [compound 218]
139 to 140 | CCOC(=O)c1sc(C#CCCNc2ncnc3ccccc23)nc1C [compound 214]
92 to 94 | C=C(C)CCc1ccccc1C#CCCNc1ncnc2ccccc12 [compound 105]
137 to 139 | N#Cc1cccc(Oc2nc(C#CCCNc3ncnc4ccccc34)cs2)c1 [compound 222]
140 to 141 | C(#Cc1ccncc1)CCNc1ncnc2sccc12 [compound 57]
163 to 166 | COC(=O)c1cccc(C#CCCNc2ncnc3sccc23)c1 [compound 30]
190 to 192 | CC(C)(C)[Si](C)(C)C#CCCNc1ncnc2sccc12
113 to 115 | OCc1cccc(C#CCCNc2ncnc3ccccc23)c1 [compound 131]
156 to 158 | C(#Cc1cncs1)CCNc1ncnc2sccc12 [Compound No. 61]
141 to 142 | CSc1cccc(C#CCCNc2ncnc3ccccc23)c1 [compound 116]
176 to 177 | Clc1ccc(Cl)c(C#CCCNc2ncnc3ccccc23)c1 [compound 173]
118 to 120 | Clc1cc(NCCC#Cc2ccccc2)ncn1 [compound 358]
158 to 159 | Fc1cc(C#CCCNc2ncnc3sccc23)cc(F)c1F [compound 43]
69 to 71 | OCc1ccc(C#CCCNc2ncnc3ccccc23)cc1 [compound 132]
128 to 129 | CC(=O)OCc1nc(C#CCCNc2ncnc3sccc23)cs1 [compound 73]
138 to 140 | C(#Cc1cccnc1)CCNc1ncnc2sccc12 [compound 56]
163 to 164 | N#Cc1c(F)cccc1C#CCCNc1ncnc2ccccc12 [compound 165]
163 to 166 | FC(F)(F)c1cc(C#CCCNc2ncnc3sccc23)cc(C(F)(F)F)c1 [compound 28]
174 | C(#Cc1cscn1)CCNc1ncnc2sccc12 [compound 63]

melting point [°C] | SMILES
153 to 155 | Clc1cccc(Cl)c1C#CCCNc1ncnc2ccccc12 [compound 174]
122 to 123 | Clc1ncnc(NCCC#Cc2ccccc2)c1Cl [compound 357]
161 to 162 | Fc1ccc(C#CCCNc2ncnc3ccccc23)cc1F [compound 166]
134 to 136 | Fc1cccc(Oc2nc(C#CCCNc3ncnc4ccccc34)cs2)c1 [compound 225]
113 to 114 | CCOC(=O)c1cnc(C#CCCNc2ncnc3ccccc23)s1 [compound 213]
134 to 139 | FC(F)(F)c1ccc(C#CCCNc2ncnc3ccccc23)cn1 [compound 198]
134 to 136 | C(#Cc1csc(-c2ccccc2)n1)CCNc1ncnc2sccc12 [Compound No. 76, 4-[4-(2-Phenylthiazol-4-yl)-3-butynylamino]thieno[2,3-d]pyrimidine]
160 to 161 | Cc1nc(C#CCCNc2ncnc3sccc23)cs1 [compound 66]
153 to 154 | FC(F)(F)c1ccccc1C#CCCNc1ncnc2cc(Cl)ccc12 [compound 308]
140 to 142 | C(#Cc1csc(-c2ccoc2)n1)CCNc1ncnc2sccc12 [compound 78]
145 to 150 | Fc1cncc(C#CCCNc2ncnc3ccccc23)c1 [compound 193]
184 to 185 | O=[N+]([O-])c1ccc(C#CCCNc2ncnc3sccc23)cc1 [compound 40]
121 to 125 | COCc1cc(F)c(F)cc1C#CCCNc1ncnc2ccccc12 [compound 146]
163 to 165 | C(#Cc1ccc(OC2CCCCO2)cc1)CCNc1ncnc2ccccc12 (stereo not drawn) [compound 156]
150 to 152 | FC(F)(F)c1ccccc1C#CCC(Nc1ncnc2ccccc12)c1ccccc1 (stereo not drawn) [compound 302]
147 to 149 | COc1ccc(Cl)cc1C#CCCNc1ncnc2ccccc12 [compound 179]
120 to 122 | C(#Cc1ccccc1)CCNc1ncnc2ccccc12 [compound 96]
183 to 187 | OC(c1ccccc1C#CCCNc1ncnc2ccccc12)C(F)(F)F (stereo not drawn) [compound 138]
182 to 186 | OCc1cnccc1C#CCCNc1ncnc2ccccc12 [compound 201]
106 to 108 | FC(F)(F)c1cccc(Oc2nc(C#CCCNc3ncnc4ccccc34)cs2)c1 [compound 219]
135 to 147 | OCc1cc(C#CCCNc2ncnc3ccccc23)co1 [compound 209]
144 to 145 | FC(F)(F)c1ccc(Cl)c(C#CCCNc2ncnc3ccccc23)c1 [compound 176]
157 to 158 | Clc1ncnc(NCCC#Cc2ccccc2)c1Cc1ccccc1 [compound 372]
53 to 55 | C(#Cc1csc(-c2ccco2)n1)CCNc1ncnc2sccc12 [compound 77]
139 | C=C(C#CCCNc1ncnc2ccccc12)CO [compound 92]
120 to 123 | Cc1cccc(C#CCCNc2ncnc3sccc23)c1 [compound 18]

melting point [°C] | SMILES
161 to 162 | COCc1ccccc1C#CCCNc1ncnc2c(Cl)cc(Cl)cc12 [compound 338]
147 to 148 | Clc1ccc(C#CCCNc2ncnc3ccccc23)cc1Cl [compound 175]
207 to 208 | C(#Cc1ccccc1)CCNc1ncnc2[nH]cnc12 [compound 378]
141 to 143 | C(#Cc1ccccc1)CC(Nc1ncnc2ccccc12)c1ccccc1 (stereo not drawn) [Compound No. 301, 4-[(1,4-diphenyl-3-butynyl)amino]quinazoline]
171 to 172 | O=[N+]([O-])c1cccc(C#CCCNc2ncnc3sccc23)c1 [compound 39]
198 to 199 | Fc1cc(Cl)ccc1C#CCCNc1ncnc2ccccc12 [compound 164]
175 to 176 | Clc1cccc(C#CCCNc2ncnc3ccccc23)c1Cl [compound 171]
121 to 123 | COCc1ccccc1C#CCCNc1ncnc2ccc(I)cc12 [compound 322]
150 to 152 | COc1ccc(Oc2nc(C#CCCNc3ncnc4ccccc34)cs2)cc1 [compound 217]
55 to 56 | C(#Cc1csc(-c2ccsc2)n1)CCNc1ncnc2sccc12 [compound 80]
182 to 183 | Clc1ccc(C#CCCNc2ncnc3ccccc23)c(Cl)c1 [compound 172]
55 to 57 | N#Cc1ccc(Oc2nc(C#CCCNc3ncnc4ccccc34)cs2)cc1 [compound 223]
179 to 181 | Fc1cccc(F)c1C#CCCNc1ncnc2sccc12 [compound 42]
196 to 198 | CC(C)[Si](C#CCCNc1ncnc2sccc12)(C(C)C)C(C)C
175 to 177 | C(#Cc1csc(-c2cccnc2)n1)CCNc1ncnc2sccc12 [compound 81]
77 to 79 | COc1cccc(Oc2nc(C#CCCNc3ncnc4ccccc34)cs2)c1 [compound 216]
193 | OCc1nc(C#CCCNc2ncnc3sccc23)cs1 [compound 70]
148 to 150 | Cc1scnc1C#CCCNc1ncnc2sccc12 [compound 65]
168 to 170 | Clc1ncccc1C#CCCNc1ncnc2ccccc12 [compound 195]
177 to 178 | Fc1ccc(C#CCCNc2ncnc3sccc23)c(F)c1 [compound 41]
123 to 125 | FC(F)(F)c1cccc(C#CCCNc2ncnc3sccc23)c1 [compound 26]
159 to 160 | C(#Cc1ccc2ccccc2c1)CCNc1ncnc2ccccc12 [compound 183]
128 to 129 | C(#Cc1nccs1)CCNc1ncnc2sccc12 [compound 62]
112 to 113 | Cc1cc(C)nc(C#CCCNc2ncnc3sccc23)n1 [compound 59]

System: Sphaerotheca fuliginea
Test: Test 1: control effect against powdery mildew on cucumber (control index)
Format: in vivo, Sphaerotheca fuliginea on cucumber (variety: SAGAMI HANJIRO)
Conditions: Podosphaera fuliginea, 336 h, read-out: Control index
Description: The expected efficacies of the combinations of the individual active compounds can be determined using Colby's formula, which is described below [Colby, S. R. “Calculating synergistic and antagonistic responses of herbicide combinations,” Weeds 15, 20-22 (1967)]: Colby's formula: E=A+B−(A×B/100) E is the predicted efficacy (control index) with reference to the untreated control when using the mixture of the active compound X at the concentration x and the active compound Y at the concentration y; A is the efficacy (control index) with respect to the untreated control when using the active compound X at the concentration x; B is the efficacy (control index) with respect to the untreated control when using the active compound […] at the concentration y.
Potted young seedlings of cucumber (variety: SAGAMI HANJIRO; in two-leaf stage) were sprayed with invention compounds formulated in accordance with Preparations and the existing antimicrobial active compounds listed in Table 3 (all compounds are identified by associated letters of the alphabet) after they were diluted with water to predetermined concentrations so that they would serve as active compounds; a spray gun was used to provide a spray rate of 15 ml per pot. After air-drying, the seedlings were inoculated with conida of Sphaerotheca fuliginea by spraying a suspension of the conida. Thereafter, the seedlings were cultivated for 14 days in a greenhouse and the percentage of diseased area was investigated for each leaf; based on the result of this investigation, the control index was calculated using the following formula: Control index={(percentage of diseased area on the untreated control−percentage of diseased area on treated sample)/percentage of diseased area on the untreated control}×100

SMILES | pest or weed control at 10 ppm [%]
Cc1ccc2nc3sc(=O)sc3nc2c1 [Nb: Chinomethionate, chinomethionat] | 38

Same assay, conditions: Podosphaera fuliginea, 336 h; individual active compound, test concentration 1 ppm

SMILES | pest or weed control at 1 ppm [%]
Fc1ccc(Oc2ccnc3cc(Cl)cc(Cl)c23)cc1 [Ia: Quinoxyfen, quinoxyfen] | 39

Source: patent publication US9089139B2, “Agri-horticultural pest control compositions comprising 4-(3-butynyl)aminopyrimidine derivatives” (SDS Biotech K. K., priority 2011, dated 2015)
